From patent publication US20240228493A1, “LRRK2 INHIBITORS AND USES THEREOF” (NEURON23, ICN., priority 2022, published 2024)

Tests used:
[1] = target: T1, wt human LRRK2, catalytic site (Homo sapiens, UniProt Q5S007); experiment: TR-FRET LanthaScreen Tb Kinase Activity Assay, LRRK2 inhibition; format: biochemical; conditions: 2 nM wt human LRRK2, 400 nM peptide, 38 μM ATP
T1 construct: wt human LRRK2, catalytic site, catalytic site (ThermoFisher/USA); purchased ThermoFisher
Protocol: The compounds disclosed herein were tested for their inhibitory effect on LRRK2 kinase according to the following procedures.
The protocol for basic TR-FRET LanthaScreen Tb Kinase Activity Assay inhibitor studies were as follows. LanthaScreen Kinase Activity Assays (ThermoFisher/USA) to evaluate inhibitors were performed by addition of 100 nL of test compound in corresponding DMSO dilutions/5 μL of kinase/fluorescein-ERM (LRRKtide) peptide mixture, Compound & kinase were pre-incubated for 15 minutes, then 5 μl of ATP into 384 well small volume plates. After incubation for 120 minutes at room temperature, the detection reagents containing Tb-anti-pLRRKtide antibody were added to monitor phosphorylation level of peptide. Then, after 60 min minutes incubation at room temperature plates were read in Envision. Data analysis of emission ratios was according to LanthaScreen Tb Kinase Activity Assay protocol.
Kinase and assay components were adjusted to final concentrations according to the kit protocol. For LRRK2: 2 nM wt human LRRK2, catalytic site, catalytic site (ThermoFisher/USA), 400 nM peptide, 38 μM ATP in 1× Kinase Buffer A. […]
Kinase and assay components were adjusted to final concentrations according to the kit protocol.

Caco-2 cells = experiment: Caco-2 bidirectional permeability; format: in vitro ADME; conditions: for Caco-2 ER: Efflux Ratio=Papp(BA)/Papp(AB); for Caco-2 A2B (10^−6 cm/s): apical to basolateral; for Caco-2 A2B (10^−6 cm/s) / Caco-2 B2A (10^−6 cm/s): 2 hours, pH 7.4; for Caco-2 B2A (10^−6 cm/s): basolateral to apical
Protocol: The compounds disclosed herein were tested in vitro on CaCo2 cell penetration according to the following procedures.
Caco-2 cells purchased from ATCC were seeded onto […] (PET) in 96-well Corning Insert plates at 1×10^5 cells/cm^2. The media were refreshed every 4 to 5 days until the 21st to 28th day for confluent cell monolayer formation.
Experiments were run in duplicate using a HBSS transport buffer containing 10 mM HEPES at pH 7.4. The test article TEST COMPOUND was tested bi-directionally at […] concentrations, the control compound digoxin was tested bi-directionally at 10 μM, and nadolol and metoprolol were tested at 2.0 μM in the A to B direction. Final DMSO concentrations were adjusted to less than 1%. The plates were incubated for 2 hours in a CO2 incubator at 37±1° C. with 5% CO2 at saturated humidity without shaking. Following incubation, samples were mixed with acetonitrile containing internal standard and centrifuged at 3200×g for 10 minutes. Then 200 μL of supernatant was taken from all samples. For TEST COMPOUND and digoxin, the supernatant was diluted with 200 μL of ultra-pure water and for nadolol and metoprolol, the supernatant was diluted with 600 μL of ultra-pure water. All samples were analyzed by LC-MS/MS. Concentrations of TEST COMPOUND and control compounds were determined in starting solutions, donor well solutions, and receiver well solutions using peak area ratios (PAR) of analyte to internal standard. After the transport assay, a lucifer yellow rejection assay was run to determine the Caco-2 cell monolayer integrity.
The apparent permeability (Papp), the % recovery and the efflux ratio were calculated as follows:
Papp=(dCr/dt)×Vr/(A×C0) 1.
Efflux Ratio=Papp(BA)/Papp(AB) 3. • Where: • dCr/dt is the slope of the cumulative concentration in the receiver compartment versus time (mM/s). • Vr and Vd is the volume in the receiver and donor compartments (0.075 mL on the apical side, 0.25 mL on the basolateral side), respectively. • A is the surface area of the cell monolayer (0.0804 cm^2). • C0 is the measured donor concentrations (μM) at the beginning of the experiment. • Cd and Cr are the final measured concentrations in the donor and receiver compartments, respectively.

human hepatocyte = experiment: Human hepatocyte stability, predicted hepatic clearance (h-Hept CL predict); format: in vitro ADME; conditions: human hepatocytes, 0.5×10^6 cells/mL, 1 μM, values without asterisk
Protocol: The compounds disclosed herein were tested in vitro on human hepatocyte for in vitro h-Hept CL predict according to the following procedures. • 1. Compound sock solutions were prepared by dissolving test compound and positive control in dimethyl sulfoxide (DMSO) at a concentration of 10 mM. Stock solutions were then diluted to 100 μM solutions by combining 198 μL of 50% acetonitrile/50% water with 2 μL of the 10 mM stock in separate conical tubes. • 2. Cryopreserved hepatocytes were prepared as follows: Incubation medium (William's E Medium supplemented with GlutaMAX) and hepatocyte thawing medium were placed in a 37° C. water bath and allowed to warm for at least 15 minutes prior to use. Cryopreserved hepatocytes were removed from storage, ensuring that vials remained at cryogenic temperatures until thawed. Cells were thawed by placing the vials in a 37° C. water bath and gently shaking the vials for 2 minutes. After thawing was completed, vials were sprayed with 70% ethanol and transferred to a biosafety cabinet. Hepatocytes were transferred into 50 mL conical tube containing thawing medium using wide-bore pipette tips. Tubes were placed into a centrifuge and spun at 100 g for 10 minutes. Then thawing medium was aspirated and hepatocytes were resuspended in enough incubation medium to yield ˜1.5×10^6 cells/mL. Cells were counted using acridine orange and propidium iodide (AO/PI) staining, and the viable cell density was determined. Cells were diluted with incubation medium to a working cell density of 0.5×10^6 viable cells/mL. • 3. To determine hepatocyte stability, 198 μL of hepatocytes were transferred into each well of a 96-well non-coated plate. Plates were placed in an incubator to allow the hepatocytes to warm for 10 minutes. • 4. The reaction was started by transferring 2 μL of the 100 μM test compound or positive control solution into respective wells of the 96-well non-coated plates. Plates were returned to the incubator until 25 μL aliquots of well contents were sampled at time points of 0, 15, 30, 60, 90 and 120 minutes. The aliquots were then mixed with 6 volumes (150 μL) of acetonitrile containing internal standard, IS (100 nM alprazolam, 200 nM caffeine and 100 nM tolbutamide) to terminate the reaction and vortexed for 5 minutes. After centrifuging the samples for 45 minutes at 3,220 g, aliquots of 100 μL of the supernatant were taken and diluted with 100 μL of ultra-pure water. The mixture was used for LC/MS/MS analysis. All incubations were performed in duplicate.
All calculations were carried out using Microsoft Excel. Peak area ratios (PAR) were determined from extracted ion chromatograms. The in vitro half-life (t1/2) of parent compound was determined by regression analysis of the percent parent disappearance vs. time curve as follows:
Conversion of the in vitro t1/2 (in minutes) into the in vitro intrinsic clearance (in vitro CLint, in μL/min/1×10^6 cells) was done using the following equation (mean of duplicate determinations): […]
The scaled-up intrinsic clearance (CLint, mL/min/kg), predicted hepatic clearance (CLH, mL/min/kg) and hepatic extraction ratio (ER) were calculated using the following equations:
CLint=(0.693/t1/2)*(1/(hepatocyte concentration (0.5*10^6 cells/mL)))*scaling factors (Table (A) Appendix Table 1)
CLHept-predict=(QH*Scaled-up CLint*fub)/(QH+Scaled-up CLint*fub)
ER=CLH/QH • Where: • V=incubation volume (0.2 mL) • N=number of hepatocytes per well (0.1*10^6 cells) • QH=hepatic blood flow (mL/min/kg) (Table (A) Appendix Table 1) • fub=fraction of unbound drug in plasma, assumed to be 1

T1 sequence (Q5S007 1879-2138 limits assumed): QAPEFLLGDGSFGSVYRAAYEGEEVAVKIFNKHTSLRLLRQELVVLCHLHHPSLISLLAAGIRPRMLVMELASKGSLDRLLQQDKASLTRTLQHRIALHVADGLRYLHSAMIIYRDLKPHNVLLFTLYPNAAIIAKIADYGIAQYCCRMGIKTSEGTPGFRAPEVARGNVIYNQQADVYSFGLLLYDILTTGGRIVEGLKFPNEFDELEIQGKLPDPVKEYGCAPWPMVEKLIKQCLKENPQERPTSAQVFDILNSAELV

Row | Compound | IC50 [1] [nM] | Caco-2 ER (Caco-2 cells) | Caco-2 A2B (10^−6 cm/s) (Caco-2 cells) | Caco-2 B2A (10^−6 cm/s) (Caco-2 cells) | hHep Cl (mL/min/kg) (human hepatocyte)
1 | COC1(C#Cc2cc3c(cn2)NC(c2c(F)cccc2F)=Nc2c(C)n[nH]c2-3)CCOCC1 [Example 31, 8-(2,6-difluorophenyl)-13-[2-(4-methoxytetrahydropyran-4-y1)ethynyl]-5-methyl-3,4,7,9,12-pentazatricyclo[8.4.0.02,6]tetradeca-1(10),2(6),4,7,11,13-hexaene] | < 1 | L (L (Likely)”: ER≥2.5) | M (M (Moderate permeability)”: 1≤A2B (B2A)≤5) | H (H (High permeability)”: A2B (B2A)>5) | I (I (Intermediate Cl)”: 6.3≤Hep Cl (mL/min/kg)≤14.7)
2 | Cc1n[nH]c2c1N=C(c1c(F)cccc1F)Nc1c-2cc(N2CCC(O)CC2)nc1C [Example 40, 1-(5-(2,6-difluorophenyl)-3,7-dimethyl-1,6-dihydropyrazolo[4,3-d]pyrido[4,3-f][1,3]diazepin-9-yl)piperidin-4-ol] | < 1 | L (L (Likely)”: ER≥2.5) | M (M (Moderate permeability)”: 1≤A2B (B2A)≤5) | H (H (High permeability)”: A2B (B2A)>5) | I (I (Intermediate Cl)”: 6.3≤Hep Cl (mL/min/kg)≤14.7)
3 | Cc1n[nH]c2c1N=C(c1c(F)cccc1F)Nc1c-2cc(N2CCN(S(C)(=O)=O)CC2)nc1C [Example 44, 5-(2,6-difluorophenyl)-3,7-dimethyl-9-(4-(methylsulfonyl)piperazin-1-yl)-1,6-dihydropyrazolo[4,3-d]pyrido[4,3-f][1,3]diazepine] | < 1 | L (L (Likely)”: ER≥2.5) | L (L (Low permeability)”: A2B (B2A)<1) | H (H (High permeability)”: A2B (B2A)>5) | L (L (Low Cl)”: Hep Cl (mL/min/kg)<6.3)
4 | Cc1nc(N2CCC[C@@H](C#N)C2)cc2c1NC(c1c(F)cccc1F)=Nc1cn[nH]c1-2 [Example 47, (R)-1-(5-(2,6-difluorophenyl)-7-methyl-1,6-dihydropyrazolo[4,3-d]pyrido[4,3-f][1,3]diazepin-9-y1)piperidine-3-carbonitrile] | < 1 | L (L (Likely)”: ER≥2.5) | M (M (Moderate permeability)”: 1≤A2B (B2A)≤5) | H (H (High permeability)”: A2B (B2A)>5) | H (H (High Cl)”: Hep Cl (mL/min/kg)>14.7)
5 | Cc1n[nH]c2c1N=C(c1c(F)cccc1F)Nc1cnc(N3CC[C@@H](C#N)C3)cc1-2 [Example 49, (R)-1-(5-(2,6-difluorophenyl)-3-methyl-1,6-dihydropyrazolo[4,3-d]pyrido[4,3-f][1,3]diazepin-9-y1)pyrrolidine-3-carbonitrile] | 1 to 100 | L (L (Likely)”: ER≥2.5) | M (M (Moderate permeability)”: 1≤A2B (B2A)≤5) | H (H (High permeability)”: A2B (B2A)>5) | I (I (Intermediate Cl)”: 6.3≤Hep Cl (mL/min/kg)≤14.7)
6 | Cc1n[nH]c2c1N=C(c1c(F)ccc(CO)c1F)Nc1cnc(N3CCOCC3)cc1-2 [Example 50, (2,4-difluoro-3-(3-methyl-9-morpholino-1,6-dihydropyrazolo[4,3-d]pyrido[4,3-f][1,3]diazepin-5-yl)phenyl)methanol] | 1 to 100 | L (L (Likely)”: ER≥2.5) | L (L (Low permeability)”: A2B (B2A)<1) | H (H (High permeability)”: A2B (B2A)>5) | L (L (Low Cl)”: Hep Cl (mL/min/kg)<6.3)
7 | Cc1cc(F)c(C2=Nc3cn[nH]c3-c3cc(N4CCOCC4)ncc3N2)c(F)c1 [Example 51, 4-(5-(2,6-difluoro-4-methylphenyl)-1,6-dihydropyrazolo[4,3-d]pyrido[4,3-f][1,3]diazepin-9-yl)morpholine] | 1 to 100 | L (L (Likely)”: ER≥2.5) | H (H (High permeability)”: A2B (B2A)>5) | H (H (High permeability)”: A2B (B2A)>5) | I (I (Intermediate Cl)”: 6.3≤Hep Cl (mL/min/kg)≤14.7)
8 | N#C[C@@H]1CCCN(c2cc3c(cn2)NC(c2c(F)cccc2F)=Nc2c(Cl)n[nH]c2-3)C1 [Example 52, (R)-1-(3-chloro-5-(2,6-difluorophenyl)-1,6-dihydropyrazolo[4,3-d]pyrido[4,3-f][1,3]diazepin-9-y1)piperidine-3-carbonitrile] | < 1 | L (L (Likely)”: ER≥2.5) | M (M (Moderate permeability)”: 1≤A2B (B2A)≤5) | H (H (High permeability)”: A2B (B2A)>5) | I (I (Intermediate Cl)”: 6.3≤Hep Cl (mL/min/kg)≤14.7)
9 | Fc1cccc(F)c1C1=Nc2c(Cl)n[nH]c2-c2cc(N3CC4CCC(C3)O4)ncc2N1 [Example 53, 3-(3-chloro-5-(2,6-difluorophenyl)-1,6-dihydropyrazolo[4,3-d]pyrido[4,3-f][1,3]diazepin-9-yl)-8-oxa-3-azabicyclo[3.2.1]octane] | < 1 | L (L (Likely)”: ER≥2.5) | M (M (Moderate permeability)”: 1≤A2B (B2A)≤5) | H (H (High permeability)”: A2B (B2A)>5) | I (I (Intermediate Cl)”: 6.3≤Hep Cl (mL/min/kg)≤14.7)
